Experimental data: US20130096135A1, “Selected Inhibitors of Protein Tyrosine Kinase Activity” (METHYLGENE INC., priority 2011, published 2013)

Target: T1, VEGF receptor KDR (VEGFR2) (Homo sapiens, UniProt P35968)
T1 construct: made in house; host or cells: Sf9 cells (Spodoptera frugiperda), baculovirus
Assay: In vitro receptor tyrosine kinase assay (VEGF receptor KDR), DELFIA
Format: biochemical
Details: recombinant GST-VEGFR2 (806-1356), ATP 0.6 uM, enzyme 5 nM; read-out: VEGFR_IC50_UM
Text: In Vitro Receptor Tyrosine Kinase Assay (VEGF receptor KDR)
This test measures the ability of compounds to inhibit the enzymatic activity of recombinant human VEGF receptor enzymatic activity.
A 1.6-kb cDNA corresponding to the catalytic domain of VEGFR2 (KDR) (Genbank accession number AF035121 amino acid 806 to 1356) is cloned into the Pst I site of the pDEST20 Gateway vector (Invitrogen) for the production of a GST-tagged version of that enzyme. This construct is used to generate recombinant baculovirus using the Bac-to-Bac™ system according to the manufacturer's instructions (Invitrogen).
The GST-VEGFR2806-1356 protein is expressed in Sf9 cells (Spodoptera frugiperda) upon infection with recombinant baculovirus construct. Briefly, Sf9 cells grown in suspension and maintained in serum-free medium (Sf900 II supplemented with gentamycin) at a cell density of about 2×10^6 cells/ml are infected with the above-mentioned viruses at a multiplicity of infection (MOI) of 0.1 during 72 hours at 27° C. with agitation at 120 rpm on a rotary shaker. Infected cells are harvested by centrifugation at 398g for 15 min. Cell pellets are frozen at −80° C. until purification is performed.
All steps described in cell extraction and purification are performed at 4° C. Frozen Sf9 cell pellets infected with the GST-VEGFR2806-1356 recombinant baculovirus are thawed and gently resuspended in Buffer A (PBS pH 7.3 supplemented with 1 μg/ml pepstatin, 2 μg/ml Aprotinin and leupeptin, 50 μg/ml PMSF, 50 μg/ml TLCK and 10 μM E64 and 0.5 mM DTT) using 3 ml of buffer per gram of cells. Suspension is Dounce homogenized and 1% Triton X-100 is added to the homogenate after which it is centrifuged at 22500 g, 30 min., 4 °C. The supernatant (cell extract) is used as starting material for purification of GST-VEGFR2806-1356.
The supernatant is loaded onto a GST-agarose column (Sigma) equilibrated with PBS pH 7.3. Following a four column volume (CV) wash with PBS pH 7.3+1% Triton X-100 and 4 CV wash with buffer B (50mM Tris pH 8.0, 20% glycerol and 100mM NaCl), bound proteins are step eluted with 5 CV of buffer B supplemented with 5 mM DTT and 15 mM glutathion. GST-VEGFR2806-1356 enriched fractions from this chromatography step are pooled based on U.V. trace i.e. fractions with high 0.D.280. Final GST-VEGFR2806-1356 protein preparations concentrations are about 0.7 mg/ml with purity approximating 70%. Purified GST-VEGFR2806-1356 protein stocks are aliquoted and frozen at −80° C. prior to use in enzymatic assay.
Inhibition of VEGFR/KDR is measured in a DELFIATM assay (Perkin Elmer). The substrate poly(Glu4, Tyr) is immobilized onto black high-binding polystyrene 96-well plates. The coated plates are washed and stored at 4° C. During the assay, the enzyme is pre-incubated with inhibitor and Mg-ATP on ice in polypropylene 96-well plates for 4 minutes, and then transferred to the coated plates. The subsequent kinase reaction takes place at 30° C. for 10-30 minutes. ATP concentrations in the assay are 0.6 uM for VEGFR/KDR (2× the Km). Enzyme concentration is 5 nM. After incubation, the kinase reactions are quenched with EDTA and the plates are washed. Phosphorylated product is detected by incubation with Europium-labeled anti-phosphotyrosine MoAb. After washing the plates, bound MoAb is detected by time-resolved fluorescence in a Gemini SpectraMax reader (Molecular Devices). Compounds are evaluated over a range of concentrations, and IC50 values (concentration of compounds giving 50% inhibition of enzymatic activity) are determined.

T1 sequence (P35968 806-1356): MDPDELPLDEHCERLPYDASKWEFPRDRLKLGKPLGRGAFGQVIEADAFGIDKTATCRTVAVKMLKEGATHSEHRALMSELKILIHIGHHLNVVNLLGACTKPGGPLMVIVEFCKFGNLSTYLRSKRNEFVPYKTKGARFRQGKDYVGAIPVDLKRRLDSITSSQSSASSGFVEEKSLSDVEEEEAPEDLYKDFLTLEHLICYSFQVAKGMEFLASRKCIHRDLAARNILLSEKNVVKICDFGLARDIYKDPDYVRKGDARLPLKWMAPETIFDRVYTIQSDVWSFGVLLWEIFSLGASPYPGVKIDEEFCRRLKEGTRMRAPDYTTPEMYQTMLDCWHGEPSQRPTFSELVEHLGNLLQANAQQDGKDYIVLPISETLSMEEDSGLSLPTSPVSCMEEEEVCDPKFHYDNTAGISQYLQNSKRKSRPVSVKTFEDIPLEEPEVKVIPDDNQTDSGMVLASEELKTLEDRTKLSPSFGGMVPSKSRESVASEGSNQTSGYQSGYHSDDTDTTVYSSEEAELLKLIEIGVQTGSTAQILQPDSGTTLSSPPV

Row | Structure (SMILES) | IC50 [nM]
1 | CN(C)CCN(C)C(=O)C1CCCN(Cc2ccc(-c3cc4nccc(Oc5ccc(NC(=O)NC6CC6)cc5F)c4s3)nc2)C1 (stereo not drawn) [Compound 4, 1-((6-(7-(4-(3-Cyclopropylureido)-2-fluorophenoxy)thieno [3,2-b]pyridin-2-yl)pyridin-3-yl)methyl)-N-(2-(dimethylamino)ethyl)-N-methylpiperidine-3-carboxamide] | 8
2 | CNCCNC(=O)C1CCCN(Cc2ccc(-c3cc4nccc(Oc5ccc(NC(=O)NC6CC6)cc5F)c4s3)nc2)C1 (stereo not drawn) [Compound 5, 1-((6-(7-(4-(3-Cyclopropylureido)-2-fluorophenoxy)thieno[3,2-b]pyridin-2-yl)pyridin-3-yl)methyl)-N-(2-(methylamino)ethyl)piperidine-3-carboxamide] | 8
3 | O=C(Nc1ccc(Oc2ccnc3cc(-c4ccc(CN5CCCC(C(=O)NC[C@@H](O)CO)C5)cn4)sc23)c(F)c1)NC1CC1 (stereo partly drawn) [Compound 9, 1-((6-(7-(4-(3-Cyclopropylureido)-2-fluoro-phenoxy)thieno[3,2-b]pyridin-2-yl)pyridin-3-yl)methyl)-N-((R)-2,3-dihydroxypropyl)piperidine-3-carboxamide] | 11
4 | CN(CCO)C(=O)[C@H]1CCCN(Cc2ccc(-c3cc4nccc(Oc5ccc(NC(=O)NC6CC6)cc5F)c4s3)nc2)C1 [Compound 11, (S)-1-((6-(7-(4-(3-Ccyclopropylureido)-2-fluorophenoxy)thieno[3,2-b]pyridin-2-yl)pyridin-3-yl)methyl)-N-(2-hydroxyethyl)-N-methylpiperidine-3-carboxamide] | 7
5 | CN(C)CCNC(=O)[C@H]1CCCN(Cc2ccc(-c3cc4nccc(Oc5ccc(NC(=O)NC6CC6)cc5F)c4s3)nc2)C1 [Compound 13, (S)-1-((6-(7-(4-(3-Cyclopropylureido)-2-fluorophenoxy)thieno[3,2-b]pyridin-2-yl)pyridin-3-yl)methyl)-N-(2-(dimethylamino)ethyl)piperidine-3-carboxamide] | 8
6 | CC(=O)SCC(=O)N1CCN(Cc2ccc(-c3cc4nccc(Oc5ccc(NC(=O)NC6CC6)cc5F)c4s3)nc2)CC1 [Compound 22, S-2-(4-((6-(7-(4-(3-Cyclopropylureido)-2-fluorophenoxy)thieno[3,2-b]pyridin-2-yl)pyridin-3-yl)methyl)piperazin-1-yl)-2-oxoethyl ethanethioate] | 15
7 | COCCOCCOCC(=O)NC1CCN(Cc2ccc(-c3cc4nccc(Oc5ccc(NC(=O)NC6CC6)cc5F)c4s3)nc2)CC1 [Compound 31] | 17
8 | C[C@@H]1CN(Cc2ccc(-c3cc4nccc(Oc5ccc(NC(=O)NC6CC6)cc5F)c4s3)nc2)CCN1C(=O)CO [Compound 33] | 7
9 | CC(=O)OCC(=O)OCC(=O)N1CCN(Cc2ccc(-c3cc4nccc(Oc5ccc(NC(=O)NC6CC6)cc5F)c4s3)nc2)CC1 [Compound 34, 2-(4-((6-(7-(4-(3-Cyclopropylureido)-2-fluorophenoxy)thieno[3,2-b]pyridin-2-yl)pyridin-3-yl)methyl)piperazin-1-yl)-2-oxoethyl 2-acetoxyacetate] | 5
10 | COCCOCCOC(=O)N1CCN(Cc2ccc(-c3cc4nccc(Oc5ccc(NC(=O)NC6CC6)cc5F)c4s3)nc2)CC1 [Compound 75, 2-(2-Methoxyethoxy)ethyl 4-((6-(7-(4-(3-cyclopropylureido)-2-fluorophenoxy)thieno[3,2-b]pyridin-2-yl)pyridin-3-yl)methyl)piperazine-1-carboxylate] | 16
11 | COCCOC(=O)N1CCN(Cc2ccc(-c3cc4nccc(Oc5ccc(NC(=O)NC6CC6)cc5F)c4s3)nc2)CC1 [Compound 76, 2-Methoxyethyl 4-((6-(7-(4-(3-cyclopropylureido)-2-fluorophenoxy)thieno[3,2-b]pyridin-2-yl)pyridin-3-yl)methyl)piperazine-1-carboxylate] | 8

Further lines, results first:

Row | IC50 [nM] | Structure (SMILES)
12 | 7 | CN(C)[C@H]1CCN(C(=O)C2CCCN(Cc3ccc(-c4cc5nccc(Oc6ccc(NC(=O)NC7CC7)cc6F)c5s4)nc3)C2)C1 (stereo partly drawn) [Compound 6, 1-Cyclopropyl-3-(4-(2-(5-((3-((S)-3-(dimethylamino)pyrrolidine-1-carbonyl)piperidin-1-yl)methyl)pyridin-2-yl)thieno[3,2-b]pyridin-7-yloxy)-3-fluorophenyl)urea]
13 | 7 | O=C(Nc1ccc(Oc2ccnc3cc(-c4ccc(CN5CCCC(C(=O)N6CC[C@@H](O)C6)C5)cn4)sc23)c(F)c1)NC1CC1 (stereo partly drawn) [Compound 7, 1-Cyclopropyl-3-(3-fluoro-4-(2-(5-((3-((R)-3-hydroxypyrrolidine-1-carbonyl)piperidin-1-yl)methyl)pyridin-2-yl)thieno[3,2-b]pyridin-7-yloxy)phenyl)urea]
14 | 3 | O=C(Nc1ccc(Oc2ccnc3cc(-c4ccc(CN5CCCC(C(=O)N6CC[C@H](O)C6)C5)cn4)sc23)c(F)c1)NC1CC1 (stereo partly drawn) [Compound 8, 1-Cyclopropyl-3-(3-fluoro-4-(2-(5-((3-((S)-3-hydroxypyrrolidine-1-carbonyl)piperidin-1-yl)methyl)pyridin-2-yl)thieno[3,2-b]pyridin-7-yloxy)phenyl)urea]
15 | 7 | CN(C)CCNC(=O)[C@@H]1CCCN(Cc2ccc(-c3cc4nccc(Oc5ccc(NC(=O)NC6CC6)cc5F)c4s3)nc2)C1 [Compound 10, (R)-1-((6-(7-(4-(3-Cyclopropylureido)-2-fluorophenoxy)thieno[3,2-b]pyridin-2-yl)pyridin-3-yl)methyl)-N-(2-(dimethylamino)ethyl)piperidine-3-carboxamide]
16 | 6 | CN(CCO)C(=O)[C@@H]1CCCN(Cc2ccc(-c3cc4nccc(Oc5ccc(NC(=O)NC6CC6)cc5F)c4s3)nc2)C1 [Compound 12, (R)-1-((6-(7-(4-(3-Cyclopropylureido)-2-fluorophenoxy)thieno[3,2-b]pyridin-2-yl)pyridin-3-yl)methyl)-N-(2-hydroxyethyl)-N-methylpiperidine-3-carboxamide]
17 | 4 | C[C@@H]1CN(C(=O)CO)CCN1Cc1ccc(-c2cc3nccc(Oc4ccc(NC(=O)NC5CC5)cc4F)c3s2)nc1 [Compound 26, (R)-1-Cyclopropyl-3-(3-fluoro-4-(2-(5-((4-(2-hydroxyacetyl)-2-methylpiperazin-1-yl)methyl)pyridin-2-yl)thieno[3,2-b]pyridin-7-yloxy)phenyl)urea]
18 | 5 | CNCC(=O)N1CCN(Cc2ccc(-c3cc4nccc(Oc5ccc(NC(=O)NC6CC6)cc5F)c4s3)nc2)CC1 [Compound 28, 1-Cyclopropyl-3-(3-fluoro-4-(2-(5-((4-(2-(methylamino)acetyl)piperazin-1-yl)methyl)pyridin-2-yl)thieno[3,2-b]pyridin-7-yloxy)phenyl)urea]
19 | 5 | C[C@@H](O)CN1CCN(Cc2ccc(-c3cc4nccc(Oc5ccc(NC(=O)NC6CC6)cc5F)c4s3)nc2)CC1 [Compound 29, (R)-1-Cyclopropyl-3-(3-fluoro-4-(2-(5-((4-(2-hydroxypropyl)piperazin-1-yl)methyl)pyridin-2-yl)thieno[3,2-b]pyridin-7-yloxy)phenyl)urea]
20 | 6 | COCC(=O)N1CCN(Cc2ccc(-c3cc4nccc(Oc5ccc(NC(=O)NC6CC6)cc5F)c4s3)nc2)CC1 [Compound 32, 1-Cyclopropvl-3-(3-fluoro-4-(2-(5-((4-(2-methoxyacetyl)piperazin-1-yl)methyl)pyridin-2-yl)thieno[3,2-b]pyridin-7-yloxy)phenyl)urea]
21 | 4 | CC(=O)OC(C)(C)C(=O)N1CCN(Cc2ccc(-c3cc4nccc(Oc5ccc(NC(=O)NC6CC6)cc5F)c4s3)nc2)CC1 [Compound 35, 1-(4-((6-(7-(4-(3-Cyclopropylureido)-2-fluorophenoxy)thieno[3,2-b]pyridin-2-yl)pyridin-3-yl)methyl)piperazin-1-yl)-2-methyl-1-oxopropan-2-yl acetate]
